Where two headings read alike, the source gives them in different places.
Columns and labels:
[1] = system: lesion of tubulointerstitial tissue / glomerulus; experiment: Suppression of renal lesion in vivo by active metabolites (model not stated)
[2] = system: induction of effector macrophage by contact of human PBMC with lipopolysaccharide; experiment: SPFC production by LPS stimulation (Test Example 1); format: cell-based
Procedure: A suppressive effect of the test compound to effector macrophage induction was investigated in vitro by an induction and production system of spontaneous plaque-forming cell (SPEC) mentioned in M. Ishibashi, S. Jiang, Y. Kokado, S. Takahara, T. Sonoda: Immunopharmacologic effects of immunosuppressive agents explored by a new effector generation assay. Transplant Proc., 21: 1854-1858, 1989.
Heparin-added peripheral blood (40 ml) was collected from a healthy person and the same amount of EDTA-added physiological saline was added. PBMC were obtained by a specific gravity centrifugal method using Ficoll-Hypaque (manufactured by Pharmacia Fine Chemicals). Self-plasma was added thereto and allowed to stand at 37° C. for 10 minutes and platelets were removed by a low-speed centrifugal separation. RPMI 1640 liquid containing 15 μg/ml of gentamicin and 2 mM L-glutamine was used for washing the PBMC. Concentration of the PBMC was adjusted to 2×10^6 cells/ml using the same liquid.
Each 200 μl of a solution containing 2×10^6 PBMC/ml prepared in the step 1 were added to each well of a micro test plate, lipopolysaccharide (hereinafter, abbreviated as LPS) was diluted with the RPMI 1640 liquid to make the final concentration 80 μg/ml and the said LPS solution was added to each well of the 200 μl-micro test plate. Further, each 50 μl of human serum of type AB were added so as to make the concentration 10% by weight. Two such micro test plates were prepared.
After that, to the above two micro test plates was added a solution where the test compound was diluted with 1% by weight of DMSO so as to make the concentration of the test compound 1 μM. Similarly were prepared each two micro test plates where the final concentrations of the test compound were 0.1 μM, 0.01 μM and 0.001 μM.
The culture liquid prepared as such was incubated for 6 days at 37° C. in 5% CO2.
The effector macrophage induced after the incubation was all recovered using a rubber-policeman (spatula made of rubber). A Hanks solution containing 5 μg/ml of gentamicin was used for washing and, using the said solution, there was prepared a solution where the concentration of the induced effector macrophage was 2×10^6 per ml.
With regard to autologous erythrocytes, those which were preserved at 4° C. in a phosphate physiological saline (hereinafter, abbreviated as PBS) to which 0.1% by weight of AB serum and autologous erythrocytes obtained from PBMC separation were used were used. The preserved autologous erythrocytes were washed for three times with a Hanks solution to which no serum was added and made into a solution of 4% by weight concentration using the said Hanks solution. Poly-L-lysine was added to a Terasaki plate and washed with PBS every 20 minutes at 37° C., the above-mentioned autologous erythrocyte solution was added thereto immediately, the mixture was allowed to stand at 37° C. for 30 minutes and the erythrocytes which were not adhered to the plate were removed to prepare a Terasaki plate to which self-erythrocytes in a monolayer were adhered.
A Hanks solution (4 μl) was added to the said Terasaki plate, 4 μl of a solution containing the induced effector macrophage obtained in the step 3 were added thereto and the mixture was allowed to stand at 37° C. for 2 hours. After completion of the reaction, it was fixed by formalin. Numbers of the produced SPFC which were adhered or phagocytized were measured.
A mean SPFC production number was calculated from the measured values of SPFC production when the concentration of the test compound was the same. SPFC production number per 1×10^6 of the induced effector macrophage was calculated and, from the recovered induced effector macrophage numbers, total SPFC production amount (S2) was calculated.
As a control, no test compound was added and the same operation as above was carried out to calculate the total SPFC production amount (S1). […]

[3] = Acute and chronic toxicity tests (Test Example 5); format: in vivo; settings: subcutaneously 90 mg/kg/day for ten days
Procedure: Acute and Chronic Toxicity Tests
Toxicity test of benzyl 2-chloro-5-oxotetrahydrofuran-2-carboxylate represented by the formula (6-1) manufactured in Example 8 and ethyl 2-ketoglutarate represented by the formula (9-1) was carried out.

SMILES: CCOC(=O)C(=O)CCC(=O)O [(9-1), ethyl 2-ketoglutarate]
- suppression of lesion in tubulointerstitial tissue in vivo [1]: shows an activity for suppressing
- IC50 ([2]; Table 5, read-out: Inhibiting Concentration for SPEC Production by LPS Stimulation (μM: IC50)): > 1 µM
- IC50 ([2]; human PBMC with LPS 80 μg/ml, incubated 6 days, Table 1, read-out: SPFC Production Inhibiting Concentration by LPS Stimulation (μM: IC50)): > 1 µM
- toxicity finding [3]: an increase in weights of the liver and the spleen in a light degree

Reference: patent US20050143453A1, “Selective preventing and therapeutic agents for progressive lesion after organic damage” (priority 2000, published 2005)
